Positions of bridges follow the written chain, without caps; N, C: chain ends. Non-standard residues stand in square brackets, D forms with d. Residues, ends and D or L forms follow the SMILES beside them. ξ: configuration not given here. Bip(4'-COOH) = N[C@@H](Cc1ccc(-c2ccc(C(=O)O)cc2)cc1)C(=O)O; Bip(4'-NHAc) = CC(=O)Nc1ccc(-c2ccc(C[C@H](N)C(=O)O)cc2)cc1; Ala(morpholin-4-yl) = N[C@@H](CN1CCOCC1)C(=O)O; Bip = N[C@@H](Cc1ccc(-c2ccccc2)cc1)C(=O)O; 2Pal = N[C@@H](Cc1ccccn1)C(=O)O; 2Thi = N[C@@H](Cc1cccs1)C(=O)O; Cha = N[C@@H](CC1CCCCC1)C(=O)O; Tle = CC(C)(C)[C@H](N)C(=O)O; ξIle = CC[C@H](C)C(N)C(=O)O; Aze = O=C(O)[C@@H]1CCN1; Sar = CNCC(=O)O
biological target: TNFα (Homo sapiens, UniProt P01375); test: TNF-Induced HEK-Blue Assay; type: cell-based; details: HEK-Blue-CD40L cells, NF-kB-driven secreted alkaline phosphatase reporter; TNFα 0.5 ng/ml; 18 h; read-out: TNF induced HEK-Blue assay IC50 value
Sequence (P01375 77-233 limits assumed): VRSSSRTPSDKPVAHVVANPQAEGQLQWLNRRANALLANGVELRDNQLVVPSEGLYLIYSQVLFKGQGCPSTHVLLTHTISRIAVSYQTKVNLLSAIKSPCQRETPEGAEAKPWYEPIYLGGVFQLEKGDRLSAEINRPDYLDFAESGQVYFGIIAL

Row | SMILES | IC50
1 | CC[C@H](C)C1NC(=O)[C@@H]2CCCN2C(=O)[C@H]([C@@H](C)CC)NC(=O)[C@@H](CCCNC(=N)N)NC(=O)[C@H](CC(=O)O)NC(=O)[C@H](Cc2ccccn2)NC(=O)CN(C)C(=O)[C@H](Cc2ccc(-c3ccc(NC(C)=O)cc3)cc2)NC(=O)[C@H](Cc2ccc(-c3ccccc3)cc2)NC(=O)[C@H](CC2CCCCC2)NC(=O)CSC[C@@H](C(=O)NCC(N)=O)NC(=O)[C@H](CC(C)C)NC(=O)[C@H](CCCNC(=N)N)NC1=O (stereo partly drawn) [Example 290] ({CH2CO}-[Cha][Bip][Bip(4'-NHAc)][Sar][2Pal]D[dR]IP[ξIle]RLCG-NH2; thioether N-13) | 0.05 to 0.2 µM
2 | CC[C@H](C)C1NC(=O)[C@@H]2CCCN2C(=O)[C@H]([C@@H](C)CC)NC(=O)[C@@H](CCCNC(=N)N)NC(=O)[C@H](CC(=O)O)NC(=O)[C@H](Cc2ccccn2)NC(=O)CN(C)C(=O)[C@H](Cc2ccc(-c3ccc(NC(C)=O)cc3)cc2)NC(=O)[C@H](Cc2ccc(-c3ccc(C(=O)O)cc3)cc2)NC(=O)[C@H](CC2CCCCC2)NC(=O)CSC[C@@H](C(=O)NCC(N)=O)NC(=O)[C@H](CC(C)C)NC(=O)[C@H](CCCNC(=N)N)NC1=O (stereo partly drawn) [Example 291] ({CH2CO}-[Cha][Bip(4'-COOH)][Bip(4'-NHAc)][Sar][2Pal]D[dR]IP[ξIle]RLCG-NH2; thioether N-13) | < 0.05 µM
3 | CC[C@H](C)[C@@H]1NC(=O)[C@@H]2CCCN2C(=O)[C@H]([C@@H](C)CC)NC(=O)[C@@H](CCCNC(=N)N)NC(=O)[C@H](CC(=O)O)NC(=O)[C@H](Cc2cnc[nH]2)NC(=O)CN(C)C(=O)[C@H](Cc2ccc(-c3ccc(NC(C)=O)cc3)cc2)NC(=O)[C@H](Cc2ccc(-c3ccc(C(=O)O)cc3)cc2)NC(=O)[C@H](CN2CCOCC2)NC(=O)CSC[C@@H](C(=O)NCC(N)=O)NC(=O)[C@H](CC(C)C)NC(=O)[C@H](Cc2cnc[nH]2)NC1=O [Example 292] ({CH2CO}-[Ala(morpholin-4-yl)][Bip(4'-COOH)][Bip(4'-NHAc)][Sar]HD[dR]IPIHLCG-NH2; thioether N-13) | < 0.05 µM

The next lines start with the values.

Row | IC50 | SMILES
4 | < 0.05 µM | CC[C@H](C)[C@@H]1NC(=O)[C@@H]2CCCN2C(=O)[C@H]([C@@H](C)CC)NC(=O)[C@@H](CCCNC(=N)N)NC(=O)[C@H](CC(=O)O)NC(=O)[C@H](Cc2ccc(O)cc2)NC(=O)CN(C)C(=O)[C@H](Cc2ccc(-c3ccc(NC(C)=O)cc3)cc2)NC(=O)[C@H](Cc2ccc(-c3ccccc3)cc2)NC(=O)[C@H](CN2CCOCC2)NC(=O)CSC[C@@H](C(=O)NCC(N)=O)NC(=O)[C@H](CC(C)C)NC(=O)[C@H](Cc2cccs2)NC1=O [Example 293] ({CH2CO}-[Ala(morpholin-4-yl)][Bip][Bip(4'-NHAc)][Sar]YD[dR]IPI[2Thi]LCG-NH2; thioether N-13)
5 | < 0.05 µM | CC[C@H](C)[C@@H]1NC(=O)[C@@H]2CCN2C(=O)[C@H]([C@@H](C)CC)NC(=O)[C@@H](CCCNC(=N)N)NC(=O)[C@H](CC(=O)O)NC(=O)[C@H](Cc2ccc(O)cc2)NC(=O)CN(C)C(=O)[C@H](Cc2ccc(-c3ccc(NC(C)=O)cc3)cc2)NC(=O)[C@H](Cc2ccc(-c3ccccc3)cc2)NC(=O)[C@H](C(C)(C)C)NC(=O)CSC[C@@H](C(=O)NCC(N)=O)NC(=O)[C@H](CC(C)C)NC(=O)[C@H](Cc2ccc(O)cc2)NC1=O [Example 294] ({CH2CO}-[Tle][Bip][Bip(4'-NHAc)][Sar]YD[dR]I[Aze]IYLCG-NH2; thioether N-13)
6 | < 0.05 µM | CC[C@H](C)[C@@H]1NC(=O)[C@@H]2CCCN2C(=O)[C@H]([C@@H](C)CC)NC(=O)[C@@H](CCCNC(=N)N)NC(=O)[C@H](CC(=O)O)NC(=O)[C@H](Cc2ccccc2)NC(=O)CN(C)C(=O)[C@H](Cc2ccc(-c3ccc(NC(C)=O)cc3)cc2)NC(=O)[C@H](Cc2ccc(-c3ccc(C(=O)O)cc3)cc2)NC(=O)[C@H](C(C)(C)C)NC(=O)CSC[C@@H](C(=O)NCC(N)=O)NC(=O)[C@H](CC(C)C)NC(=O)[C@H](Cc2cnc[nH]2)NC1=O [Example 295] ({CH2CO}-[Tle][Bip(4'-COOH)][Bip(4'-NHAc)][Sar]FD[dR]IPIHLCG-NH2; thioether N-13)

Source: patent publication US20250145665A1, “MACROCYCLIC PEPTIDES USEFUL AS MODULATORS OF TNF ALPHA” (Bristol-Myers Squibb Company, priority 2023, published 2025)
